Results taken from patent publication US8802664B2 (Bioproject, priority 2010, dated 2014).

Tests used:
[1] = biological target: T1, human H4 receptor (Homo sapiens, UniProt Q9H3N8); assay: [3H]Histamine binding on membranes of CHO cells stably expressing human H4 receptor
T1 construct: expressed in transfected cells
Summary of the method: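 Nonspecific binding defined with 10 μM JNJ 7777120. Bound radioactivity collected on polyethyleneimine-treated GF/B filters and counted by liquid scintillation.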

| Structure (SMILES) | Ki or IC50 activity class [1] | melting point |
| --- | --- | --- |
| COc1cc(F)c(O)c(C(OC2CCN(C)CC2)c2nc3ccccc3[nH]2)c1 (stereo not shown) [Example 608] | < 0.3 µM | 132 °C |
| CN1CCC(OC(c2nc3ccccc3[nH]2)c2cc(OC(F)(F)F)ccc2F)CC1 (stereo not shown) [Example 433, 2-[(2-fluoro-5-trifluoromethoxyphenyl)(1-methylpiperidin-4-yloxy)methyl]-1H-benzimidazole] | < 0.03 µM | 95 °C |
| COc1ccc(COc2cccc(C(NC3CCN(C)CC3)c3nc4ccccc4[nH]3)c2)cc1 (stereo not shown) [Example 124, {(1H-benzimidazol-2-yl)[3-(4-methoxybenzyloxy)phenyl]methyl}(1-methylpiperidin-4-yl)amine] | < 0.03 µM | 84 °C |
| CN1CCC(OC(c2cccc(Br)c2)c2nc3cc(F)c(F)c(F)c3[nH]2)CC1 (stereo not shown) [Example 481, 2-[(3-bromophenyl)(1-methylpiperidin-4-yloxy)methyl]-5,6,7-trifluoro-1H-benzimidazole] | < 1 µM | 140 °C |
| CN1CCC(OC(c2nc3ccccc3[nH]2)c2cc(Oc3ccccc3)ccc2O)CC1 (stereo not shown) [Example 609] | < 0.3 µM | 140 °C |
| CN1CCC(NC(c2cccc(-c3ccccc3)c2)c2nc3ccccc3[nH]2)CC1 (stereo not shown) [Example 94, [(1H-benzimidazol-2-yl)biphenyl-3-ylmethyl](1-methylpiperidin-4-yl)amine] | < 0.03 µM | 98 °C |
| CN1CCC(OC(c2nc3ccccc3[nH]2)c2ccccc2OC(F)(F)F)CC1 (stereo not shown) [Example 251, 2-[(1-methylpiperidin-4-yloxy)(2-trifluoromethoxy-phenyl)methyl]-1H-benzimidazole] | < 1 µM | 193 °C |
| CN1CCC(OC(c2cccc(-c3cncnc3)c2)c2nc3ccccc3s2)CC1 (stereo not shown) [Example 216, 2-[(1-methylpiperidin-4-yloxy)(3-pyrimidin-5-yl-phenyl)methyl]benzothiazole] | < 0.3 µM | 85 °C |
| CN1CCC(OC(c2cccc(OCCCCCN3CCN(C(=O)OC(C)(C)C)CC3)c2)c2nc3ccccc3s2)CC1 (stereo not shown) [Example 362, 4-(5-{3-[benzothiazol-2-yl(1-methylpiperidin-4-yloxy)methyl]phenoxy}pentyl)piperazine-1-carboxylic acid tert-butyl ester] | < 1 µM | 131 °C |
| CCCc1ccc(O)c(C(OC2CCN(C)CC2)c2nc3ccccc3[nH]2)c1 (stereo not shown) [Example 591] | < 0.3 µM | 120 °C |
| CN1CCC(OC(c2nc3ccccc3[nH]2)c2cc(Cl)cc(F)c2O)CC1 (stereo not shown) [Example 599] | < 0.3 µM | 146 °C |
| CN1CCC(OC(c2cccc(-c3ccn[nH]3)c2)c2nc3ccccc3s2)CC1 (stereo not shown) [Example 260, 2-{(1-methylpiperidin-4-yloxy)[3-(2H-pyrazol-3-yl)phenyl]methyl}benzothiazole] | < 0.03 µM | 90 °C |
| CSc1cccc(C(NC2CCN(C)CC2)c2nc3ccccc3[nH]2)c1 (stereo not shown) [Example 75, [(1H-benzimidazol-2-yl)(3-methylsulfanylphenyl)methyl](1-methylpiperidin-4-yl)amine] | < 0.03 µM | 166 °C |
| CN1CCC(OC(c2nc3ccccc3[nH]2)c2ccc(F)c(F)c2O)CC1 (stereo not shown) [Example 625, 6-[(1H-benzimidazol-2-yl)(1-methylpiperidin-4-yloxy)methyl]-2,3-difluorophenol] | < 0.03 µM | 184 °C |
| CN1CCC(OC(c2nc3ccccc3[nH]2)c2cc(OC(F)(F)F)ccc2O)CC1 (stereo not shown) [Example 571] | < 0.03 µM | 132 °C |
| CC(C)c1cccc(C(NC2CCN(C)CC2)c2nc3ccccc3[nH]2)c1 (stereo not shown) [Example 66, [(1H-benzimidazol-2-yl)(3-isopropylphenyl)methyl](1-methylpiperidin-4-yl)amine] | < 1 µM | 82 °C |
| CN1CCC(OC(c2nc3ccccc3[nH]2)c2ccc(C(F)(F)F)cc2O)CC1 (stereo not shown) [Example 617] | < 0.03 µM | 144 °C |
| CN1CCC(OC(c2nc3ccccc3[nH]2)c2c(F)cc(Cl)cc2F)CC1 (stereo not shown) [Example 527] | < 0.03 µM | 195 °C |
| CN1CCC(OC(c2nc3ccccc3s2)c2cccc3ccccc23)CC1 (stereo not shown) [Example 17, 2-[(1-methylpiperidin-4-yloxy)naphthalen-1-ylmethyl]benzothiazole] | < 1 µM | 106.5 °C |

Second part, the compound after the results:

| Ki or IC50 activity class [1] | melting point | Structure (SMILES) |
| --- | --- | --- |
| < 0.3 µM | 110 °C | CN1CCC(OC(c2nc3ccccc3[nH]2)c2cccc3cc[nH]c23)CC1 (stereo not shown) [Example 577] |
| < 0.3 µM | 120 °C | CCCOc1ccc(O)c(C(OC2CCN(C)CC2)c2nc3ccccc3[nH]2)c1 (stereo not shown) [Example 603] |
| < 1 µM | 146 °C | CN1CCC(OC(c2cccc(CCC3CNC3)c2)c2nc3ccccc3[nH]2)CC1 (stereo not shown) [Example 392, 2-[[3-(2-azetidin-3-ylethyl)phenyl](1-methylpiperidin-4-yloxy)methyl]-1H-benzimidazole] |
| < 0.3 µM | 86 °C | Cc1ccc(C(OC2CCN(C)CC2)c2nc3ccccc3[nH]2)cc1Cl (stereo not shown) [Example 552] |
| < 0.3 µM | 90 °C | CN1CCC(OC(c2cccc(OCCN)c2)c2nc3ccccc3[nH]2)CC1 (stereo not shown) [Example 291, 2-{3-[(1H-benzimidazol-2-yl)(1-methylpiperidin-4-yloxy)methyl]phenoxy}ethylamine] |
| < 0.03 µM | 105 °C | CCc1cccc(C(OC2CCN(C)CC2)c2nc3ccccc3[nH]2)c1O (stereo not shown) [Example 616] |
| < 0.3 µM | 163 °C | CSc1ccccc1-c1cccc(C(OC2CCN(C)CC2)c2nc3ccccc3[nH]2)c1 (stereo not shown) [Example 114, 2-[(1-methylpiperidin-4-yloxy)(2′-methylsulfanylbiphenyl-3-yl)methyl]-1H-benzimidazole] |
| < 0.3 µM | 71 °C | C=CCCOc1cccc(C(NC2CCN(C)CC2)c2nc3ccccc3[nH]2)c1 (stereo not shown) [Example 145, [(1H-benzimidazol-2-yl)(3-but-3-enyloxyphenyl)methyl](1-methylpiperidin-4-yl)amine] |
| < 0.3 µM | 102 °C | Cc1ccc(C(OC2CCN(C)CC2)c2nc3ccccc3[nH]2)cc1 (stereo not shown) [Example 177, 2-[(1-methylpiperidin-4-yloxy)-p-tolyl-methyl]-1H-benzimidazole] |
| < 0.03 µM | 145 °C | CN1CCC(OC(c2nc3ccccc3[nH]2)c2cc(Br)ccc2O)CC1 (stereo not shown) [Example 575] |
| < 0.3 µM | 93 °C | CN1CCC(OC(c2cccc(F)c2)c2nc3ccccc3[nH]2)CC1 (stereo not shown) [Example 155, 2-[(3-fluorophenyl)(1-methylpiperidin-4-yloxy)methyl]-1H-benzimidazole] |
| < 0.03 µM | 140 °C | CN1CCC(OC(c2nc3ccccc3[nH]2)c2ccc(F)cc2O)CC1 (stereo not shown) [Example 584] |
| < 0.03 µM | 120 °C | Cc1ccc(C(OC2CCN(C)CC2)c2nc3ccccc3[nH]2)c(C)c1 (stereo not shown) [Example 541] |
